The source of these data is patent US7109175B1, “Specific steady-state R-type CA2+ channel blockers and use thereof” (Universite de Sherbrooke, priority 2000, dated 2006).

“Also recorded” adds a separate entry of the source.

Assay [1] has as its system TTX-sensitive fast Na^+ current. The assay can be described thus: Whole-cell voltage clamp, TTX-sensitive fast Na+ current in heart cells. Type of assay: cell-based, chick. As for the experimental part:
Single cells of different types in culture were prepared from biopsies of human, chick and rabbit. Known and accepted methods for the isolation of fast Na^+ current, T, L and R-type Ca^2+ channels as well as delayed outward K^+ current were used (Bkaily 1994, supra).
The compounds to be tested are added to the appropriate extracellular solution after recording a stable ionic current or normal steady-state level of […]. The effect of different concentrations of compounds are tested on the different type of current and [Ca]i of the different cell types. The effect of each concentration of the compounds in function of the time of exposure are then determined. Once the steady-state effect is reached, the second concentration is added, etc.
In one series of experiments (n=5), the effect of different concentrations of MV8608 (10^−11M to 10^−7M) on the TTX-sensitive fast Na^+ current were tested using the whole-cell voltage clamp technique and experimental conditions reported elsewhere (Bkaily et al., 1988, supra; 1993, supra).
In a series of experiments (n=5), we tested the effect of another MV compound MV8612 on the TTX-sensitive fast Na^+ current (INa) of embryonic chick heart cells using the whole-cell voltage clamp technique described above.

In assay [2] the test system is R-type Ca^2+ channel. In words: Fura-2 total [Ca]i, R-type channel stimulation-induced sustained increase, pooled cell types. Type of assay: cell-based, chick, human, rabbit. The text has this:
(§1) This sustained increase of Ca^2+ induced by depolarization of the cell membrane or hormones such as PAF, ET-1 and bradykinin is due to the increase of Ca^2+ influx through the R-type Ca^2+ channels at the sarcolemmal membrane and/or the nuclear membrane (Bkaily G., 1994, supra; 1996, supra; 1997a–d, supra). Using Ca^2+ fluorescence probes Fura-2 or Fluo-3 and 2 and three-dimension Ca^2+ imaging techniques (Bkaily G., 1994, supra; 1996, supra; 1997a–d, supra), the effect of hormones and drugs could be easily tested. These two methods are used with single cells of different types as described above.
(§2) In another series of experiments we tested the effect of MV8608 (10^−9M) on R-type Ca^2+ channels stimulation-induced sustained increase of total intracellular Ca^2+ by sustained depolarization (FIGS. 15 to 19), by PAF (10^−9M) (FIGS. 16 to 19 and 21 to 22), by ET-1 (10^−9M) (FIGS. 16 and 19) and bradykinin (BK, 10^−6M) (FIGS. 20 and 21), in embryonic chick heart cells (FIGS. 15, 16, 19 and 20), 19-week-old human fetal heart cells (FIGS. 15, 17, 18 and 20), rabbit aortic vascular smooth muscle (VSM) cells (FIGS. 20 and 21), human aortic VSM cell-line (FIG. 23) and freshly isolated (FIG. 22) as well as in freshly isolated aortic endothelial cells (FIG. 22).
(§3) Using Fura-2 [Ca]i measurement technique, in one series of experiments we tested the effect of MV8612 (10^−9M) on the stimulation of R-type Ca^2+-induced sustained increase of [Ca]i by sustained depolarization (FIGS. 26 and 27), PAF (10^−9M, FIG. 34) and ET-1 (FIGS. 33 and 34).

The subject of assay [3] is R-type Ca^2+ channel. The assay can be described thus: Fura-2 [Ca]i, embryonic chick heart cells. Type of assay: cell-based. The note with it: 10^−9M, sustained depolarization (KCl 30 mM), PAF 10^−9M, ET-1 10^−9M.
Text: as §1
as §2, with “22). […]” for “22).”

Assay [4] concerns R-type Ca^2+ channel. The assay can be described thus: Fura-2 [Ca]i, human aortic vascular smooth muscle cells (cell line and freshly isolated). Type of assay: cell-based. The note with it: for sustained increase of [Ca]i induced by high PAF: PAF 10^−7M.
Text: as §1, §2
In some experiments, the stimulation of the R-type Ca^2+ channel was elevated by increasing the concentration of PAF from 10^−9M up to 10^−7. […] Only a concentration of 10^−6M of MV8608 was able to block the high PAF effect on the sustained increase of [Ca]i (FIG. 23).
as §3

The subject of assay [5] is R-type Ca^2+ channel. In words: Confocal Fluo-3 3-dimension measurement of [Ca]c and [Ca]n, chick heart cells and human aortic VSM cell line. Type of assay: cell-based. The note with it: for sustained increase of [Ca]c and [Ca]n induced by high PAF: PAF 10^−7M; for sustained depolarization induced sustained increase of [Ca]c and [Ca]n: heart cells, FIG. 29 panel A; for prevention of sustained increase of [Ca]c and [Ca]n: chick heart cells and human aortic VSM cell line.

A further assay has as its system mouse paw oedema. The assay can be described thus: Mouse paw oedema. Type of assay: in vivo, mice. As for the experimental part: In this experiment (N=5 to 6 animals per group), the anti-oedemagenic action of compounds MV 8608 and MV 8612 against bradykinin and several mediators which are reported to be involved in the inflammatory processes, was evaluated. The procedures used to perform these experiments have been reported elsewhere (Neves et al., 1993, Eur. J. Pharmacol. 243:213–219; Campos et al., 1995, Br. J. Pharmacol. 114:1005–1013; Campos et al., 1996, Br. J. Pharmacol. 117:793–798; Eur. J. Pharmacol. 316:227–286). […] As reported previously, in rats treated […] prior to a systemic injection of LPS, both B1 and B2 kinin selective agonists caused marked oedema formation (FIGS. 37C and D (Campos et al., 1996, supra)).
When tested in mice, MV 8612 (40 to 160 nmol/paw) inhibited bradykinin and carrageenan-induced paw oedema in mice in a dose-dependent manner (FIGS. 46A and B).

A further assay concerns pleurisy in mice. The assay can be described thus: Murine model of pleurisy. The note with it: for neutrophil cells, carrageenan pleurisy / total cells, carrageenan pleurisy: MV 8612 30 and 60, MV 8608 30, i.p. Type of assay: in vivo. As for the experimental part:
(§4) To assess further the anti-inflammatory action of MV 8612 and MV 8608, their effects against the inflammatory responses caused by several mediators of inflammation in a murine model of pleurisy were tested (Saleh et al., 1996, Br. J. Pharmacol. 118:811–819). In addition, both compounds were tested against the increase of vascular permeability caused by bradykinin in the rat skin (Neves et al., 1993b, Phytotherapy Research. 7:356–362).

Assay [6] has as its system vascular permeability in the rat skin. In words: Bradykinin-induced skin vascular permeability in rats. The note with it: for increase of vascular permeability caused by bradykinin: MV 8612 8 and 16, MV 8608 27 and 54, i.p. Type of assay: in vivo. As for the experimental part:
as §4

[7] abbreviates: sustained depolarization and PAF 10^−7M.
Where [8] appears, read: 40 to 160 nmol/paw co-injection.

Regarding `C[C@]12CC[C@H](O)CC1=CC[C@@H]1[C@@H]2CC[C@]2(C)[C@H]3[C@@H]4OC[C@H]3O[C@@H](O)[C@]12O4` [MV8608, (15R, 16R, 20S)-14, 16:15,20:16,21-triepoxi-15,16-seco 14β, 17α-pregn-5-ene-3β, 15-diol], in assay [1] (10^−11M to 10^−7M, single heart cell, n=5), the “effect on TTX-sensitive fast Na+ current” value was “no effect; also recorded: absence of the effect”. In the assay with R-type Ca^2+ channel [2] (10^−9M), the “time to complete block of sustained increase of [Ca]i” value fell in the range of 4 to 5 min. Further, in the assay on R-type Ca^2+ channel [2] (10^−9M, sustained depolarization, ET-1 10^−9M, PAF 10^−9M, BK 10^−6M), the “sustained increase of [Ca]i via activation of R-type Ca2+ channel” value is “completely blocked; also recorded: blockade”. Moreover, the “block of R-type Ca2+ channel across cell types” value with R-type Ca^2+ channel [2] (incl. MG63, FAOS-2, human VSM, endothelial cells, T-lymphocytes, platelets, AOSMC-9) was “blocked the R-type Ca^2+ channel in all cell types used”. The “sustained increase of [Ca]i” value in the assay on R-type Ca^2+ channel [3] is recorded as “blockade”. In the assay on R-type Ca^2+ channel [4] (10^−9M, PAF 10^−9M, freshly isolated human aortic VSM cells), the “PAF induced sustained increase of [Ca]i” value is listed as “blockade”. Further, the “sustained increase of [Ca]i induced by high PAF” value in the assay on R-type Ca^2+ channel [4] (MV8608 10^−6M, human aortic VSM cell line) was “able to block; also recorded: blockade”. The “sustained increase of [Ca]i induced by high PAF” value in the assay on R-type Ca^2+ channel [4] (MV8608 10^−9M) is recorded as “failed to significantly decrease”. The “cytosolic and nuclear Ca2+ sustained overload” value in the assay on R-type Ca^2+ channel [5] (10^−7M, KCl 30 mM and PAF, nifedipine present) is “blocked both the cytosolic and nuclear Ca^2+ sustained overload”. For the same compound, in the assay with R-type Ca^2+ channel [5] (10^−8 M and 10^−7 M), the “prevention of depolarization-induced stimulation of R-type channel ([Ca]c, [Ca]n)” value is on record as “prevented the stimulation of the R-type Ca^2+ channel”. Also, the “prevention of high PAF action” value in the assay with R-type Ca^2+ channel [5] (PAF 10^−7 M, 10^−9M) is “succeeded in preventing the high PAF action”. Also, the “sustained increase of [Ca]c and [Ca]n induced by high PAF” value with R-type Ca^2+ channel [5] (MV8608 10^−6M) is reported as “significantly decrease; also recorded: blocked”. In the assay with R-type Ca^2+ channel [5], the “sustained depolarization induced sustained increase of [Ca]c and [Ca]n” value is given as “blocked completely”. Moreover, the “prevention of sustained increase of [Ca]c and [Ca]n” value with R-type Ca^2+ channel [5] (setting [7]) was “preventive effect”. In the assay on mouse paw oedema (7.5 and 15, i.p.), the histamine-induced paw oedema entry is recorded as “dose-related inhibition” and the serotonin-induced paw oedema entry is reported as “dose-related inhibition”. For the same compound, the bradykinin-induced paw oedema entry in the assay on mouse paw oedema (7.5 and 15, i.p., 30 min prior) is on record as “unaffected”. For the same compound, in the assay with pleurisy in mice (30, i.p.), the “mononuclear cells influx, PAF pleurisy” value is “antagonised significantly” and the “plasma extravasation, PAF pleurisy” value was “antagonised significantly”. In addition, in the assay on pleurisy in mice, the “neutrophil cells, carrageenan pleurisy” value was “inhibited significantly” and the “total cells, carrageenan pleurisy” value was “inhibited significantly”. Further, in assay [6], the “increase of vascular permeability caused by bradykinin” value is “antagonised in a dose-related manner”.
Turning to `COC1CC(OC2C(C)OC(O[C@H]3CC[C@@]4(C)C(=CC[C@@H]5[C@@H]4CC[C@]4(C)[C@H]6[C@@H]7OC[C@H]6O[C@@H](O)[C@]54O7)C3)CC2OC)OC(C)C1OC1CC(OC)C(OC2CC(OC)C(OC3OC(C)C(OC(C)=O)C(OC)C3OC(C)=O)C(C)O2)C(C)O1` (some centres unmarked) [MV8612], the “further decrease of INa amplitude” value in assay [1] (10^−7M, embryonic chick heart cells) is “no further decrease”. For the same compound, the “decrease of INa amplitude” value in assay [1] (10^−8M, embryonic chick heart cells) turned out to be 15%. In addition, in assay [1] (10^−9M, embryonic chick heart cells), the “effect on fast Na+ current” value is “had no effect”. For the same compound, the “sustained increase of [Ca]i induced by sustained depolarization and hormones” value with R-type Ca^2+ channel [2] (10^−9M, PAF 10^−9M, ET-1) is “significantly decreased”. For the same compound, in the assay on R-type Ca^2+ channel [3], the “sustained increase of [Ca]i” value is recorded as “blockade”. Besides, in the assay with R-type Ca^2+ channel [4] (10^−8M, KCl 30 mM and PAF 10^−7M, human aortic VSM cell line), the “prevention of sustained increase of [Ca]i” value is listed as “found to prevent; also recorded: preventive effect”. Moreover, the “sustained increase of [Ca]c and [Ca]n induced by high PAF” value in the assay with R-type Ca^2+ channel [5] (MV8612 10^−8M) is given as “blocked”. Moreover, the “sustained depolarization induced sustained increase of [Ca]c and [Ca]n” value in the assay on R-type Ca^2+ channel [5] was “blocked completely”. Besides, in the assay on R-type Ca^2+ channel [5] (setting [7]), the “potency of blocking sustained increase of [Ca]c and [Ca]n, comparison” value was “more potent blocker than MV8608”; the “potency of preventing stimulation of R-type channel, comparison” value is given as “equipotent in preventing”; the “prevention of sustained increase of [Ca]c and [Ca]n” value is on record as “preventive effect”. In addition, in the assay with mouse paw oedema (7.5 and 15, i.p.), the histamine-induced paw oedema result is “no significant effect” and the serotonin-induced paw oedema entry is recorded as “no significant effect”. In the assay with mouse paw oedema (7.5 and 15, i.p., 30 min prior), the bradykinin-induced paw oedema result is reported as “dose-dependent inhibition” and the “cellulose sulphate-induced paw oedema” value was “dose-dependent inhibition”. Further, in the assay on mouse paw oedema (40 to 160 nmol/paw), the PAF-acether-induced oedema result is “failed to affect significantly” and the serotonin-induced oedema entry was “failed to affect significantly”. Moreover, in the assay with mouse paw oedema (setting [8]), the bradykinin-induced paw oedema result is on record as “inhibited” and the carrageenan-induced paw oedema result is listed as “inhibited”. Moreover, the “plasma extravasation, carrageenan pleurisy” value in the assay on pleurisy in mice (30 and 60, i.p., 1 h prior) is “significantly inhibited”. In addition, in the assay with pleurisy in mice, the “neutrophil cells, carrageenan pleurisy” value is listed as “significantly inhibited” and the “total cells, carrageenan pleurisy” value is “significantly inhibited”. The “inflammatory response caused by PAF acether” value in the assay with pleurisy in mice (same range of dose, i.p.) is reported as “did not affect significantly”. Moreover, the “increase of vascular permeability caused by bradykinin” value in assay [6] is given as “antagonised in a dose-related manner”. Moreover, the “activity against bradykinin vascular permeability, comparison” value in assay [6] (MV 8612 versus MV 8608) was “more active than MV 8608”.
